pEC50, pIC50, pKi: −log10 of the molar value. Each block holds one compound with its values, some of them ahead of it. Calls of active or inactive are those of the source. The calls are words filed in the database; no cut-off is given here.
Assays:
Histamine H3 receptor [1] = molecular target: T1, Histamine H3 receptor (Homo sapiens, UniProt Q9Y5N1); assay: Binding affinity to human histamine H3 receptor
Histamine H3 receptor [2] = molecular target: Histamine H3 receptor (Rattus norvegicus, UniProt Q9QYN8); assay: Binding affinity to rat histamine H3 receptor
Histamine H3 receptor (Rattus norvegicus, UniProt Q9QYN8), sequence (Q9QYN8 whole entry): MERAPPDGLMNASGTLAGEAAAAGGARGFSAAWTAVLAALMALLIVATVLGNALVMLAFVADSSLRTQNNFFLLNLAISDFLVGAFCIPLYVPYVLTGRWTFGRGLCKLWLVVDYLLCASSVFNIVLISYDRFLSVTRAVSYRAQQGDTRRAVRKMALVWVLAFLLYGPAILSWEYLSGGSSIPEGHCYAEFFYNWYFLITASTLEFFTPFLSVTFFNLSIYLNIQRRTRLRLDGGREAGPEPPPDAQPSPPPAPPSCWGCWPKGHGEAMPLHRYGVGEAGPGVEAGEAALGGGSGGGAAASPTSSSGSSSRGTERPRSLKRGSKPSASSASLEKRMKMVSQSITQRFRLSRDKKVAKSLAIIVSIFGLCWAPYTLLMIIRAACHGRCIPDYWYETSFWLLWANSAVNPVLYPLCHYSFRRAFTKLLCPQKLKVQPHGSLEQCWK

Cytochrome P450 1A2 = molecular target: T2, Cytochrome P450 1A2 (Homo sapiens, UniProt P05177); assay: Inhibition of CYP1A2 (unknown origin); format: ADME
T2 sequence (P05177 whole entry): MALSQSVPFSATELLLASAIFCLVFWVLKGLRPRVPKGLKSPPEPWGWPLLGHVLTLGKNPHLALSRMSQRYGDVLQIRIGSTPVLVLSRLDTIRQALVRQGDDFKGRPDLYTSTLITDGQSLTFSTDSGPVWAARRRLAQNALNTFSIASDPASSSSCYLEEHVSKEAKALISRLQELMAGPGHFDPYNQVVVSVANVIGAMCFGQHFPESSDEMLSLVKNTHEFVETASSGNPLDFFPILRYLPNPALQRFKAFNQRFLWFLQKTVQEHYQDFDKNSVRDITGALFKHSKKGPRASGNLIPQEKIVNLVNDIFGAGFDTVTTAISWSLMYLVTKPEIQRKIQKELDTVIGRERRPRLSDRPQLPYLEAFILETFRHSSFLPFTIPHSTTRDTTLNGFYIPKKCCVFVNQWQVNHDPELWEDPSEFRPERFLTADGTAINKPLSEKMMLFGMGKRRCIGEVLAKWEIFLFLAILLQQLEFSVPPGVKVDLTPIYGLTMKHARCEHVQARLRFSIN

[3] = Volume of distribution at steady state in rat at 1 mg/kg, iv; format: ADME, organism-based; parameters: dose 1 mg/kg, route intravenous; details: in vivo, read-out: Vdss
[4] = Half life in monkey liver microsomes; format: ADME, Macaca mulatta; details: rhesus monkey
Rattus norvegicus [5] = assay: Wake promoting activity in rat EEG/EMG model assessed as cumulative wake time at 30 mg/kg, ip after 22 hrs relative to vehicle-treated control; format: functional; details: route intraperitoneal
[6] = Aqueous solubility of the compound at pH 7.4; format: physicochemical
Histamine H4 receptor = Histamine H4 receptor (Homo sapiens, UniProt Q9H3N8); assay: Inhibition of human H4R
[7] = Cmax in rat at 10 mg/kg, po; format: ADME, organism-based; parameters: dose 10 mg/kg, route oral; details: in vivo
Rattus norvegicus [8] = organism: Rattus norvegicus; details: 10 mg/kg
[9] = Clearance in rat at 1 mg/kg, iv; format: ADME, organism-based; parameters: dose 1 mg/kg, route intravenous; details: in vivo
[10] = Half life in rat liver microsomes; format: ADME
[11] = Ratio of drug level in brain to plasma in rat at 10 mg/kg, ip after 2 hrs; format: ADME, organism-based; parameters: dose 10 mg/kg, route intraperitoneal; details: read-out: BPR
Rattus norvegicus [12] = assay: Wake promoting activity in rat EEG/EMG model assessed as AUC of cumulative wake at 30 mg/kg, ip up to 5.5 hrs relative to vehicle-treated control; format: functional, organism-based; parameters: dose 30 mg/kg, time < 5.5 hr
[13] = molecular target: Sodium-dependent dopamine transporter (Homo sapiens, UniProt Q01959); assay: Inhibition of DAT (unknown origin)
Sodium-dependent dopamine transporter, sequence (Q01959 whole entry): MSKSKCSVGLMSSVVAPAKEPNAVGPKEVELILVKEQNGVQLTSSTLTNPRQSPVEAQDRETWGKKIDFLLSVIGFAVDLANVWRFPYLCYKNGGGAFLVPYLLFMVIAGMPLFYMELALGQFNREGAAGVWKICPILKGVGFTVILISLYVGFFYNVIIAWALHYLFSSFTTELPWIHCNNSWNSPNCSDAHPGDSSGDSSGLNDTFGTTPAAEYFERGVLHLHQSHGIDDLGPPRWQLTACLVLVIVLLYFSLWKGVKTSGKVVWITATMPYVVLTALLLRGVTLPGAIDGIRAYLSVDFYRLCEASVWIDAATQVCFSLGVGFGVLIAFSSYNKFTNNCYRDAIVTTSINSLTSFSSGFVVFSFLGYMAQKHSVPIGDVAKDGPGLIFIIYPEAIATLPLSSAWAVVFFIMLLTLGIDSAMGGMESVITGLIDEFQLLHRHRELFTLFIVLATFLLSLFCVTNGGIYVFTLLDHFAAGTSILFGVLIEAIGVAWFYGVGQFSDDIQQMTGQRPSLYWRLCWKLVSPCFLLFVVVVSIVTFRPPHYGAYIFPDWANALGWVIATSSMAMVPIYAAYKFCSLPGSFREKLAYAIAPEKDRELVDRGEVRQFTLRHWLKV

[14] = Plasma protein binding in rat; format: ADME, cell-free; details: read-out: PPB (converted)
[15] = Plasma protein binding in dog; format: ADME, cell-free, Canis lupus familiaris; details: read-out: PPB (converted)
Rattus norvegicus [16] = assay: Wake promoting activity in rat EEG/EMG model assessed as cumulative wake time at 3 mg/kg, ip after 22 hrs relative to vehicle-treated control; format: functional; details: route intraperitoneal
[17] = Half life in rat at 1 mg/kg, iv; format: ADME, organism-based; parameters: dose 1 mg/kg, route intravenous; details: in vivo
Rattus norvegicus [18] = assay: Toxicity in po dosed rat; format: organism-based; details: in vivo
Histamine H1 receptor = Histamine H1 receptor (Homo sapiens, UniProt P35367); assay: Inhibition of human H1R
Histamine H1 receptor, sequence (P35367 whole entry): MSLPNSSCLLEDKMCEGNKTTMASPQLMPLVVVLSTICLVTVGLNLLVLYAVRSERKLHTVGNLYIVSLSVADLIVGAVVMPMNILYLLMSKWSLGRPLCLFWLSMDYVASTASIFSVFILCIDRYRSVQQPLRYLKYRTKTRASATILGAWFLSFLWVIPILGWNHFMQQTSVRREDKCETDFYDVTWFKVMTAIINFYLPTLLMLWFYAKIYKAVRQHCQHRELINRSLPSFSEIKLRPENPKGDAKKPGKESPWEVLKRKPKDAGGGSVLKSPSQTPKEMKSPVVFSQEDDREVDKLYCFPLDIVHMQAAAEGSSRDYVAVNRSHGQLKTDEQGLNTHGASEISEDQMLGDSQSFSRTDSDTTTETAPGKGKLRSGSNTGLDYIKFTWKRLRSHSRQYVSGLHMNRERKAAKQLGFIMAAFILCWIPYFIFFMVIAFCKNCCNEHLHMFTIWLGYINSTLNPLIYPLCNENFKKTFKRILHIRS

[19] = AUC (0 to t) in rat at 10 mg/kg, po; format: ADME, organism-based; parameters: dose 10 mg/kg, route oral; details: plasma
[20] = Oral bioavailability in rat at 10 mg/kg; format: ADME, organism-based; details: in vivo
[21] = Plasma protein binding in human; format: ADME, cell-free; details: read-out: PPB (converted)
[22] = Half life in human liver microsomes; format: ADME
Histamine H3 receptor [23] = molecular target: T1, Histamine H3 receptor; assay: Inverse agonist activity at human H3R expressed in CHO cells assessed as inhibition of RAMH-induced [35S]GTPgammaS binding relative to control; format: functional, cell-based
[24] = Permeability across human Caco2 cells; format: ADME, cell-based; details: Caco-2
Rattus norvegicus [25] = assay: Toxicity in rat at 3 to 30 mg/kg, ip; format: organism-based; parameters: dose 3-30 mg/kg, route intraperitoneal; details: in vivo
[26] = Aqueous solubility of the compound at pH 2; format: physicochemical
Histamine H2 receptor = Histamine H2 receptor (Homo sapiens, UniProt P25021); assay: Inhibition of human H2R
Histamine H2 receptor, sequence (P25021 whole entry): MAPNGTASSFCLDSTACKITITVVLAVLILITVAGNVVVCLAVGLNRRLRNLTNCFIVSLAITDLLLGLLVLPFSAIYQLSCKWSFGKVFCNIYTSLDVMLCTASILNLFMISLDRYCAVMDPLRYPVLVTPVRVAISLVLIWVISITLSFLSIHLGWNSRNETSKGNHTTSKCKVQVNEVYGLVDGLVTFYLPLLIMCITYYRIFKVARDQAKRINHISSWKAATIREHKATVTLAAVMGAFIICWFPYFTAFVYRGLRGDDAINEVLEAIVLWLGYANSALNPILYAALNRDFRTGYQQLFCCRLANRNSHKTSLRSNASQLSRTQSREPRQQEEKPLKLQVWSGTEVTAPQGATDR

[27] = Half life in mouse liver microsomes; format: ADME
Rattus norvegicus [28] = assay: Wake promoting activity in rat EEG/EMG model assessed as AUC of cumulative wake at 3 mg/kg, ip up to 4 hrs relative to vehicle-treated control; format: functional, organism-based; parameters: dose 3 mg/kg, time < 4 hr
Rattus norvegicus [29] = assay: Wake promoting activity in rat EEG/EMG model assessed as cumulative wake time at 10 mg/kg, ip after 22 hrs relative to vehicle-treated control; format: functional; details: route intraperitoneal
[30] = molecular target: T3, Alpha-2C adrenergic receptor (Homo sapiens, UniProt P18825); assay: Inhibition of alpha-2C adrenergic receptor (unknown origin)
T3 sequence (P18825 whole entry): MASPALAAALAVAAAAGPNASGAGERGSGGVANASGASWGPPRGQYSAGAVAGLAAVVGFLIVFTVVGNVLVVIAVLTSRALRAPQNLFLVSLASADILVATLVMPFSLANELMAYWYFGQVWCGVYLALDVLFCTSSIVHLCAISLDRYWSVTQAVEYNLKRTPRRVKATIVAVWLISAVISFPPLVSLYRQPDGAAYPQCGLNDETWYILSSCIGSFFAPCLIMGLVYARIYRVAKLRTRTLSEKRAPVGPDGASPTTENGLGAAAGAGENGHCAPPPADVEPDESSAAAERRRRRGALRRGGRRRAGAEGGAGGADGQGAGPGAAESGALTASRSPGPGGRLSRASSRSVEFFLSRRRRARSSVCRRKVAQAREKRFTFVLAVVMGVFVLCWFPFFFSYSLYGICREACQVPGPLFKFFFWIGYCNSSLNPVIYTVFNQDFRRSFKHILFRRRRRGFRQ

Rattus norvegicus [31] = organism: Rattus norvegicus; details: 30 mg/kg
Rattus norvegicus [32] = organism: Rattus norvegicus; assay: Inhibition of RAMH-induced dipsogenia in rat; format: functional
Canis familiaris [33] = assay: Oral bioavailability in dog at 3 mg/kg; format: ADME, organism-based, Canis lupus familiaris; details: in vivo
Rattus norvegicus [34] = assay: Wake promoting activity in rat EEG/EMG model assessed as total time awake at 30 mg/kg, ip at 6.5 hrs relative to vehicle-treated control; format: functional; details: route intraperitoneal
Rattus norvegicus [35] = assay: Wake promoting activity in rat EEG/EMG model assessed as recovery from sleep at 3 to 30 mg/kg, ip after 22 hrs relative to vehicle-treated control; format: functional, organism-based
[36] = AUC (0 to t) in monkey at 3 mg/kg, po; format: ADME, organism-based, Macaca mulatta; parameters: dose 3 mg/kg, route oral; details: rhesus monkey, plasma
[37] = Volume of distribution at steady state in monkey at 1 mg/kg, iv; format: ADME, organism-based, Macaca mulatta; parameters: dose 1 mg/kg, route intravenous; details: rhesus monkey, in vivo, read-out: Vdss
[38] = Oral bioavailability in monkey at 3 mg/kg; format: ADME, organism-based, Macaca mulatta; details: rhesus monkey, in vivo
[39] = Clearance in monkey at 1 mg/kg, iv; format: ADME, organism-based, Macaca mulatta; parameters: dose 1 mg/kg, route intravenous; details: rhesus monkey, in vivo
Canis familiaris [40] = assay: AUC (0 to t) in dog at 3 mg/kg, po; format: ADME, organism-based, Canis lupus familiaris, Plasma; parameters: dose 3 mg/kg, route oral; details: in vivo
[41] = Cmax in dog at 3 mg/kg, po; format: ADME, organism-based, Canis lupus familiaris; parameters: dose 3 mg/kg, route oral; details: in vivo
[42] = Half life in monkey at 1 mg/kg, iv; format: ADME, organism-based, Macaca mulatta; parameters: dose 1 mg/kg, route intravenous; details: rhesus monkey, in vivo
[43] = Cmax in monkey at 3 mg/kg, po; format: ADME, organism-based, Macaca mulatta; parameters: dose 3 mg/kg, route oral; details: rhesus monkey, in vivo
Rattus norvegicus [44] = assay: Wake promoting activity in ip dosed rat EEG/EMG model; format: functional, organism-based
[45] = Ratio of drug level in brain to plasma in dog at 10 mg/kg, ip after 2 hrs; format: ADME, organism-based, Canis lupus familiaris; parameters: dose 10 mg/kg, route intraperitoneal; details: read-out: BPR
[46] = Volume of distribution at steady state in dog at 1 mg/kg, iv; format: ADME, organism-based, Canis lupus familiaris; parameters: dose 1 mg/kg, route intravenous; details: in vivo, read-out: Vdss
[47] = Half life in dog at 1 mg/kg, iv; format: ADME, organism-based, Canis lupus familiaris; parameters: dose 1 mg/kg, route intravenous; details: in vivo

T1 sequence (Q9Y5N1 whole entry): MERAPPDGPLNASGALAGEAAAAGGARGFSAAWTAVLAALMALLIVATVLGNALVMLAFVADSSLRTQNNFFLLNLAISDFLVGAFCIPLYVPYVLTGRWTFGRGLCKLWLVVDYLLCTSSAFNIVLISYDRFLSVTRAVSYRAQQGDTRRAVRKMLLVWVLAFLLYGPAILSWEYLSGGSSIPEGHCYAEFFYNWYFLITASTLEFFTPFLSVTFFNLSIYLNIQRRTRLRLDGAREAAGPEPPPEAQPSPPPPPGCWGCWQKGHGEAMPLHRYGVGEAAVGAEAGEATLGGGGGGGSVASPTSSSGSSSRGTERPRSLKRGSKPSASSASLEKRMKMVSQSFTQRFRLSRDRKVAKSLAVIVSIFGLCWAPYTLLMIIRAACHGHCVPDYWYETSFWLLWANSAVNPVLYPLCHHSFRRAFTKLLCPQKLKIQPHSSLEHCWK

pKi (Histamine H3 receptor [1]): 7.41 | pKi (Histamine H3 receptor [2]): 6.86
Compound: Cc1cc(OCCCN2CCCCC2)ccc1C1=NNC(=O)C2CC12 (racemic)

pKi (Histamine H3 receptor [1]): 7.89 | pKi (Histamine H3 receptor [2]): 7.24
Compound: C[C@H]1CCCN1CCCOc1ccc(C2=NNC(=O)C3CC23)cc1 (mixture of isomers)

pIC50 (Cytochrome P450 1A2): < 4.52 | Vd [3]: 2.5 L/kg | half-life [4]: > 40 min | solubility [6]: > 4000 µg/mL | pKi (Histamine H4 receptor): < 5.00 | Cmax [7]: 738 ng/mL | clearance [9]: 20 mL/min/kg | half-life [10]: > 40 min | Kp at 2 h [11]: 3.1 | pKi [13]: 5.18 | fraction unbound [14]: 0.46 | fraction unbound [15]: 0.47 | pKi (Histamine H3 receptor [1]): 8.35 | half-life [17]: 84 min | pKi (Histamine H1 receptor): < 5.00 | AUC(0-t) [19]: 4660 ng·h/mL | bioavailability [20]: 46% | fraction unbound [21]: 0.39 | pKi (Histamine H3 receptor [2]): 7.85 | half-life [22]: > 40 min | pEC50 (Histamine H3 receptor [23]): 9.22 | Papp [24]: 15.7 ×10⁻⁶ cm/s | solubility [26]: > 4000 µg/mL | pKi (Histamine H2 receptor): < 5.00 | half-life [27]: > 40 min | pKi [30]: 5.74
Compound: C[C@@H]1CCCN1CCCOc1ccc(C2=NNC(=O)[C@H]3C[C@@H]23)cc1
Time (Rattus norvegicus [5]): 130 min | AUC (Rattus norvegicus [8]): 192 min | AUC (Rattus norvegicus [12]): 231 min | Time (Rattus norvegicus [16]): 85 min | Activity (Rattus norvegicus [18]): Non-toxic | Activity (Rattus norvegicus [25]): Non-toxic | AUC (Rattus norvegicus [28]): 134 min | Time (Rattus norvegicus [29]): 106 min | AUC (Rattus norvegicus [31]): 221 min | Activity (Rattus norvegicus [32]): Dose-dependent effect | ED50 (Rattus norvegicus [32]): 0.21 mg/kg

F (Canis familiaris [33]): 115% | pIC50 (Cytochrome P450 1A2): < 4.52 | Vd [3]: 0.9 L/kg | half-life [4]: > 40 min | solubility [6]: > 4000 µg/mL | pKi (Histamine H4 receptor): < 5.00 | Cmax [7]: 810 ng/mL | clearance [9]: 9.6 mL/min/kg | half-life [10]: > 40 min | Kp at 2 h [11]: 2 | pKi [13]: 4.99 | AUC(0-t) [36]: 9570 ng·h/mL | fraction unbound [14]: 0.19 | Vd [37]: 4 L/kg | fraction unbound [15]: 0.4 | pKi (Histamine H3 receptor [1]): 8.51 | half-life [17]: 66 min | pKi (Histamine H1 receptor): < 5.00 | AUC(0-t) [19]: 5760 ng·h/mL | bioavailability [20]: 34% | fraction unbound [21]: 0.55 | pKi (Histamine H3 receptor [2]): 8.00 | bioavailability [38]: 136% | half-life [22]: > 40 min | pEC50 (Histamine H3 receptor [23]): 9.15 | Papp [24]: 17.5 ×10⁻⁶ cm/s | clearance [39]: 6 mL/min/kg | solubility [26]: > 4000 µg/mL | AUCt (Canis familiaris [40]): 4205 ng·h/mL | Cmax [41]: 664 ng/mL | half-life [42]: 462 min | pKi (Histamine H2 receptor): < 5.00 | half-life [27]: > 40 min | Cmax [43]: 764 ng/mL | pKi [30]: 5.82 | Kp at 2 h [45]: 2.1 | Vd [46]: 3.7 L/kg | half-life [47]: 192 min
Compound: C[C@@H]1CCCN1CCCOc1ccc(C2=NNC(=O)[C@@H]3C[C@H]23)cc1
Time (Rattus norvegicus [34]): 197 min | AUC (Rattus norvegicus [8]): 158 min | Activity (Rattus norvegicus [35]): inactive | AUC (Rattus norvegicus [12]): 233 min | Activity (Rattus norvegicus [18]): Non-toxic | Activity (Rattus norvegicus [25]): Non-toxic | AUC (Rattus norvegicus [28]): 128 min | Activity (Rattus norvegicus [44]): Dose-dependent effect | Activity (Rattus norvegicus [32]): Dose-dependent effect | ED50 (Rattus norvegicus [32]): 0.14 mg/kg
